Source: patent US8410126B2, “Pyrimidine inhibitors of PKTK2” (Boehringer Ingelheim International GmbH, priority 2009, dated 2013)

The compounds below were run against T1, PTK2 (Homo sapiens, UniProt Q05397) (assay: PTK2 enzyme test Assay 1 (DELFIA, poly-Glu-Tyr substrate, PT60 antibody)). Details: Assay 1 (values without *); 1 h pre-incubation, 50 μM ATP mix, final DMSO 2%.
T1 construct: purchased Invitrogen PV3832
Format: biochemical
Procedure: (§1) This test uses active PTK2 enzyme (Invitrogen Code PV3832) and poly-Glu-Tyr (4:1, Sigma P-0275) as the kinase substrate. The kinase activity is detected through the phosphorylation of the substrate in a DELFIA™ assay. The phosphorylated substrate is detected with the europium-labelled phosphotyrosine antibody PT60 (Perkin Elmer, No.: AD00400).
In order to determine concentration-activity curves with PTK2-inhibitors the compounds are serially diluted in 10% DMSO/H2O and 10 μL of each dilution are placed in each well of a 96-well microtitre plate (clear plate with a U-shaped base, Greiner No. 650101) (the inhibitors are tested in duplicates) and mixed with 10 μL/well of PTK2 kinase (0.01 μg/well). PTK2 kinase has been correspondingly diluted beforehand with kinase dilution buffer (20 mM TRIS/HCl pH 7.5, 0.1 mM EDTA, 0.1 mM EGTA, 0.286 mM sodium orthovanadate, 10% glycerol with the addition of freshly prepared BSA (fraction V, 1 mg/mL) and DTT (1 mM)). The test compound and the PTK2 kinase are pre-incubated for 1 h at RT and shaken at 500 revolutions per min. The reaction is started by the addition of 10 μL/well poly (Glu,Tyr) substrate (25 μg/well poly (Glu, Tyr), 0.05 μg/well biotinylated poly (Glu,Tyr) dissolved in 250 mM TRIS/HCl pH 7.5, 9 mM DTT)—the final concentration of DMSO is 2%. Then 20 μL of ATP Mix (30 mM TRIS/HCl pH 7.5, 0.02% Brij, 0.2 mM sodium orthovanadate, 10 mM magnesium acetate, 0.1 mM EGTA, 1× phosphatase inhibitor cocktail 1 (Sigma, No.: P2850), 50 μM ATP (Sigma, No.: A3377; 15 mM stock solution)) are added. After 1 h of kinase reaction (the plates are shaken at 500 rpm), the reaction is stopped by the addition of 12 μL/well 100 mM EDTA, pH 8.0 and shaken for a further 5 min at RT (500 rpm). 55 μL of the reaction mixture are transferred into a streptavidin plate (Strepta Well High Bind (transparent, 96-well) made by Roche, No.: 11989685001) and incubated for 1 h at RT (shaking at 500 rpm). Then the microtitre plate is washed three times with 200 μL/well D-PBS (Invitrogen, No. 14190). 100 μL of a solution containing DELFIA Eu-N1 Anti-Phosphotyrosine PT60 antibody (Perkin Elmer, No.: AD0040, diluted 1:2000 in DELFIA test buffer (Perkin Elmer, No.: 1244-111)) is then added and the mixture is incubated for 1 h at RT (shaking at 500 rpm). Then the plate is washed three times with 200 μL/well DELFIA washing buffer (Perkin Elmer, No.: 1244-114), 200 μL/well strengthening solution (Perkin Elmer, No.: 1244-105) are added and the mixture is incubated for 10 min at RT (shaking at 300 rpm).
The time-delayed europium fluorescence is then measured in a microtitre plate reader (VICTOR^3, Perkin Elmer). […] Wells that contain test buffer instead of enzyme are used as a control of the background kinase activity.
The IC50 values are determined from analyses of the concentration activity by iterative calculation with the aid of a sigmoid curve analysis algorithm (FIFTY, based on GraphPAD Prism Version 3.03) with a variable Hill coefficient.

T1 sequence (Q05397 whole entry): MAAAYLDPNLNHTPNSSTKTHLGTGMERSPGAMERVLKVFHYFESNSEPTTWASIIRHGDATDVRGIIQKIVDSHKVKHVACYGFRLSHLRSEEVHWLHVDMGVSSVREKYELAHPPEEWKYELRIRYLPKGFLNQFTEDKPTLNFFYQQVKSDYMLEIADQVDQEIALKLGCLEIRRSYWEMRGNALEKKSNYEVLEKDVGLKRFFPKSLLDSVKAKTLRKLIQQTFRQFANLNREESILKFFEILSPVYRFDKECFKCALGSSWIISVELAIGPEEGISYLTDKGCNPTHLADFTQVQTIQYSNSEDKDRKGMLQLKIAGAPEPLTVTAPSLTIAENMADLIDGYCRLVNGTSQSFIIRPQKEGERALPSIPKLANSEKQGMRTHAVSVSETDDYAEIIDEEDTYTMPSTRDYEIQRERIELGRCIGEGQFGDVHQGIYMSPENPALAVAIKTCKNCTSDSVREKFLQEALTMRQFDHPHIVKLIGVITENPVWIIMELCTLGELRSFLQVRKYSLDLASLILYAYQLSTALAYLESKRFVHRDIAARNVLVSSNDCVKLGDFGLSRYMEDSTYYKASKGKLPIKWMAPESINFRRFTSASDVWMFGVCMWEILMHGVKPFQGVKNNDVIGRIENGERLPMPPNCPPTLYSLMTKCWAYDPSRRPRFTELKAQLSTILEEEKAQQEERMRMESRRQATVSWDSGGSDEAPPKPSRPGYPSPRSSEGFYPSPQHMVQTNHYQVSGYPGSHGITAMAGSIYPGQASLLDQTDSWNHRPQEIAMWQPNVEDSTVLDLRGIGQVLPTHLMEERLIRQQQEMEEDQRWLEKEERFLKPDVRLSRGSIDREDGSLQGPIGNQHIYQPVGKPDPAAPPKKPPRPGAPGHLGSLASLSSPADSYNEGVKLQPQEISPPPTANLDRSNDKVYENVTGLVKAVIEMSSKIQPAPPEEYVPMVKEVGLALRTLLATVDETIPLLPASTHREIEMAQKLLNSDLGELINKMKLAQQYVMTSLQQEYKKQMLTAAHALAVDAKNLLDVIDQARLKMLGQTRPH

Row | SMILES | IC50
1 | COCCNC(=O)c1ccc(Nc2ncc(C(F)(F)F)c(N[C@@H]3Cc4ccccc4[C@H]3N(C)S(C)(=O)=O)n2)c(OC)c1 [Example I-45] | 2 nM
2 | CNCc1ccc(Nc2ncc(C(F)(F)F)c(N[C@@H]3Cc4ccccc4[C@H]3N(C)S(C)(=O)=O)n2)c(OC)c1 [Example I-71, N-{(1R,2R)-2-[2-(2-methoxy-4-methylaminomethyl-phenylamino)-5-trifluoromethyl-pyrimidin-4-ylamino]-indan-1-yl}-N-methyl-methanesulphonamide] | 1 nM
3 | COc1cc(C(=O)NCCN(C)C)c(C)cc1Nc1ncc(Cl)c(N[C@@H]2Cc3ccccc3[C@H]2N(C)S(C)(=O)=O)n1 [Example I-97] | 2 nM
4 | COCCNC(=O)c1ccc(Nc2ncc(C(F)(F)F)c(N[C@@H]3Cc4ccccc4[C@H]3NC(C)=O)n2)c(OC)c1 [Example I-16] | 2 nM

Results, then the compound that gave them:

Row | IC50 | SMILES
5 | 4 nM | COc1cc(C(=O)NC2CCC(N3CCN(CC4CC4)CC3)CC2)ccc1Nc1ncc(C(F)(F)F)c(N[C@@H]2Cc3ccccc3[C@H]2NC(C)=O)n1 (some centres unmarked) [Example I-12]
6 | 2 nM | COc1cc(Nc2ncc(C(F)(F)F)c(N[C@@H]3Cc4ccccc4[C@H]3N(C)S(C)(=O)=O)n2)ccc1NC(C)=O [Example I-92]
7 | 1 nM | COc1cc(C(=O)NCCN(C)C)ccc1Nc1ncc(C(F)(F)F)c(N[C@@H]2Cc3ccccc3[C@H]2N(C)S(C)(=O)=O)n1 [Example I-52]
8 | 2 nM | CNC(=O)c1ccc(Nc2ncc(C(F)(F)F)c(N[C@@H]3Cc4ccccc4[C@H]3NC(C)=O)n2)c(OC)c1 [Example I-18]
9 | 4 nM | COc1cc(C(=O)NC2CCC(N3CCN(CC4CC4)CC3)CC2)c(F)cc1Nc1ncc(C(F)(F)F)c(N[C@@H]2Cc3ccccc3[C@H]2N(C)S(C)(=O)=O)n1 (some centres unmarked) [Example I-51]
10 | 6 nM | CNC(=O)c1ccc(Nc2ncc(C(F)(F)F)c(N[C@@H]3c4ccccc4C[C@H]3NS(C)(=O)=O)n2)c(OC)c1 [Example I-95]
11 | 2 nM | CONC(=O)c1ccc(Nc2ncc(C(F)(F)F)c(N[C@@H]3Cc4ccccc4[C@H]3NC(C)=O)n2)c(OC)c1 [Example I-17]
12 | 2 nM | CCN1CCC(NC(=O)c2ccc(Nc3ncc(C(F)(F)F)c(N[C@@H]4Cc5ccccc5[C@H]4NC(C)=O)n3)c(OC)c2)CC1 [Example I-11]
13 | 11 nM | COc1nc(C)ccc1Nc1ncc(C(F)(F)F)c(N[C@@H]2Cc3ccccc3[C@H]2N(C)S(C)(=O)=O)n1 [Example I-96]
14 | 3 nM | COc1cc(C(=O)NC2CCCN(C)C2)c(F)cc1Nc1ncc(C(F)(F)F)c(N[C@@H]2Cc3ccccc3[C@H]2N(C)S(C)(=O)=O)n1 (some centres unmarked) [Example I-47]

These compounds were tested against T1, PTK2 (assay: PTK2 enzyme test Assay 2 (DELFIA, poly-Glu-Tyr substrate, PT66 antibody)). Details: Assay 2 (values marked *); 1 h pre-incubation, 50 μM ATP mix, final DMSO 0.5%.
Format: biochemical
Description: as §1, with “by means of” for “through”, “PT66” for “PT60”, “AD0040).” for “AD00400).”
In order to determine concentration-activity curves with PTK2-inhibitors the compounds are serially diluted first of all in 100% DMSO and then in kinase dilution buffer (20 mM TRIS/HCl pH 7.5, 0.1 mM EDTA, 0.1 mM EGTA, 0.286 mM sodium orthovanadate, 10% glycerol with the addition of freshly prepared BSA (fraction V, 1 mg/mL) and DTT (1 mM)) and 10 μL of each dilution are dispensed per well in a 96-well microtitre plate (clear U-shaped base plate, Greiner No. 650101) (the inhibitors are tested in duplicates) and mixed with 10 μL/well of PTK2 kinase (0.01 μg/well). PTK2 kinase is diluted accordingly beforehand with kinase dilution buffer. The diluted PTK2 inhibitor and the PTK2 kinase are pre-incubated for 1 h at RT and shaken at 500 revolutions per min. Then 10 μL/well poly-Glu-Tyr substrate (25 μg/well poly-Glu-Tyr, 0.05 μg/well biotinylated poly-Glu-Tyr dissolved in 250 mM TRIS/HCl pH 7.5, 9 mM DTT) are added. The reaction is started by the addition of 20 μL of ATP Mix (30 mM TRIS/HCl pH 7.5, 0.02% Brij, 0.2 mM sodium orthovanadate, 10 mM magnesium acetate, 0.1 mM EGTA, 1× phosphatase inhibitor cocktail 1 (Sigma, No.: P2850), 50 μM ATP (Sigma, No.: A3377; 15 mM stock solution))—the final concentration of DMSO is 0.5%. After 1 h kinase reaction (the plates are shaken at 500 rpm), the reaction is stopped by the addition of 12 μL/well of 100 mM EDTA, pH 8, and shaken for a further 5 min at RT (500 U/min). 55 μL of the reaction mixture are transferred into a streptavidin plate (Strepta Well High Bind (transparent, 96-well) made by Roche, No.: 11989685001) and incubated for 1 h at RT (shaking at 500 rpm). Then the microtitre plate is washed five times with 200 μL/well D-PBS (Invitrogen, No. 14190). 100 μL of a solution containing DELFIA Eu-N1 Anti-Phosphotyrosine PT66 antibody (Perkin Elmer, No.: AD0040, diluted 1:9000 in DELFIA test buffer (Perkin Elmer, No.: 1244-111)) is then added and it is incubated for 1 h at RT (shaking at 500 rpm). Then the plate is washed five times with 200 μL/well DELFIA washing buffer (Perkin Elmer, No.: 1244-114), 200 μL/well strengthening solution (Perkin Elmer, No.: 1244-105) is added and the whole is incubated for 10 min at RT (shaking at 300 rpm).
The time-delayed europium fluorescence is then measured in a microtitre plate reader (VICTOR^3, Perkin Elmer). The positive control consists of wells that contain solvent (0.5% DMSO in test buffer) and display uninhibited kinase activity. Wells that contain test buffer instead of enzyme act as a control for the background kinase activity.
The IC50 values are determined from concentration-activity analyses by iterative calculation using a sigmoid curve analysis algorithm (FIFTY, based on GraphPAD Prism Version 3.03) with a variable Hill coefficient.

Row | SMILES | IC50
15 | COc1cc(C(=O)NCCN(C)C)ccc1Nc1ncc(C(F)(F)F)c(N[C@@H]2CCc3ccccc3[C@H]2N(C)S(C)(=O)=O)n1 [Example I-94] | 16 nM
16 | COc1cc(N2CCN(C)CC2)c(C)cc1Nc1ncc(C(F)(F)F)c(N[C@@H]2Cc3ccccc3[C@H]2N(C)S(C)(=O)=O)n1 [Example I-77] | 0.56 nM
17 | COc1cc(F)c(C(=O)NC2CCN(C)CC2)cc1Nc1ncc(Cl)c(N[C@@H]2Cc3ccccc3[C@H]2N(C)S(C)(=O)=O)n1 [Example I-75, 5-{5-chloro-4-[(1R,2R)-1-(methanesulphonyl-methyl-amino)-indan-2-ylamino]-pyrimidin-2-ylamino}-2-fluoro-4-methoxy-N-(1-methyl-piperidin-4-yl)-benzamide] | 0.3 nM
18 | COc1ccc(NC(=O)C2CCN(C)CC2)cc1Nc1ncc(C(F)(F)F)c(N[C@@H]2Cc3ccccc3[C@H]2N(C)S(C)(=O)=O)n1 [Example I-62, 1-methyl-piperidine-4-carboxylic acid (3-{4-[(1R,2R)-1-(methanesulphonyl-methyl-amino)-indan-2-ylamino]-5-trifluoromethyl-pyrimidin-2-ylamino}-4-methoxy-phenyl)-amide] | 0.62 nM
19 | COc1cc(N2CCN(C(C)(C)C)CC2)ccc1Nc1ncc(C(F)(F)F)c(N[C@@H]2Cc3ccccc3[C@H]2NS(C)(=O)=O)n1 [Example I-91] | 0.75 nM
20 | COc1cc(N2CCN(C(C)(C)C)CC2)ccc1Nc1ncc(C(F)(F)F)c(N[C@@H]2Cc3ccccc3[C@H]2N(C)S(C)(=O)=O)n1 [Example I-66, N-((1R,2R)-2-{2-[4-(4-tert-butyl-piperazin-1-yl)-2-methoxy-phenylamino]-5-trifluoromethyl-pyrimidin-4-ylamino}-indan-1-yl)-N-methyl-methanesulphonamide] | 0.6 nM
21 | COc1ccc(C(=O)NCCN(C)C)cc1Nc1ncc(C(F)(F)F)c(N[C@@H]2Cc3ccccc3[C@H]2N(C)S(C)(=O)=O)n1 [Example I-63, N-(2-dimethylamino-ethyl)-3-{4-[(1R,2R)-1-(methanesulphonyl-methyl-amino)-indan-2-ylamino]-5-trifluoromethyl-pyrimidin-2-ylamino}-4-methoxy-benzamide] | 0.71 nM

Further lines, results first:

Row | IC50 | SMILES
22 | 0.83 nM | COc1cc(N2CCN(C(C)(C)C)CC2)c(C)cc1Nc1ncc(C(F)(F)F)c(N[C@@H]2Cc3ccccc3[C@H]2N(C)S(C)(=O)=O)n1 [Example I-78, N-((1R,2R)-2-{2-[4-(4-tert-butyl-piperazin-1-yl)-2-methoxy-5-methyl-phenylamino]-5-trifluoromethyl-pyrimidin-4-ylamino}-indan-1-yl)-N-methyl-methanesulphonamide]
23 | 0.74 nM | COc1cc(NC(=O)C2CCN(C)C2)ccc1Nc1ncc(C(F)(F)F)c(N[C@@H]2Cc3ccccc3[C@H]2N(C)S(C)(=O)=O)n1 (some centres unmarked) [Example I-72]
